Assay results reported in patent US20110077231A1, “COMPOUNDS” (BOEHRINGER INGELHEIM INTERNATIONAL GMBH, priority 2007, published 2011).

Target: T1, hBK1 receptor (Homo sapiens, UniProt P46663)
T1 construct: expressed in transfected cells; host or cells: CHO cells (membrane homogenate)
T1 sequence (P46663 1-353): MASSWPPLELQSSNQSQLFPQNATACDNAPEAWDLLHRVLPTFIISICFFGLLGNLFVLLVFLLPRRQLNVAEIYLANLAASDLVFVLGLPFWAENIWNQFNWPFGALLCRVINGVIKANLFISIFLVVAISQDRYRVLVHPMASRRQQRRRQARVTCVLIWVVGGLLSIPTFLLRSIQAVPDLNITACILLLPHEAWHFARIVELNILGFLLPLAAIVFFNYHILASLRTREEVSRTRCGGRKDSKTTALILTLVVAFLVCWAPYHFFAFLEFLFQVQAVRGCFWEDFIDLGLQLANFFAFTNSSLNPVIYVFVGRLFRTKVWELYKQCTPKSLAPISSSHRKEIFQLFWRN
Experiment: hBK1 receptor binding (radioligand displacement on CHO cell membranes)
Settings: membranes of CHO cells expressing the hBK1 receptor; 0.5 to 1.0 nM [3H]-kallidin (DesArg10, Leu9); 60 minutes at room temperature
Description: Description of the Method of hBK1 Receptor Binding
CHO cells expressing the hBK1 receptor are cultivated in Dulbecco's modified medium. The medium from confluent cultures is removed and the cells are washed with PBS buffer, scraped off and isolated by centrifugation. The cells are then homogenized in suspension and the homogenate is centrifuged and resuspended. The protein content is determined and the membrane preparation obtained in this manner is then frozen at −80° C. After thawing, 200 μl of the homogenate (50 to 100 μg of proteins/assay) are incubated at room temperature with 0.5 to 1.0 nM of kallidin (DesArg10, Leu9), [3,4-prolyl-3,43H(N)] and increasing concentrations of the test substance in a total volume of 250 μl for 60 minutes. The incubation is terminated by rapid filtration through GF/B glass fibre filters which had been pretreated with polyethyleneimine (0.3%). The protein-bound radioactivity is measured in a TopCount NXT. Non-specific binding is defined as radioactivity bound in the presence of 1.0 μM of […]. The concentration/binding curve is analysed using a computer-assisted nonlinear curve fitting. The Ki which corresponds to the test substance is determined using the data obtained in this manner. […]

SMILES | Ki [nM]
COc1cc(C)c(S(=O)(=O)N(C)CCOCC(=O)N(C)[C@H]2CC[C@H](OCCN(C)C)CC2)c(C)c1 [Example 1] | 53.6
COc1cc(C)c(S(=O)(=O)N(C)CCOCC(=O)N(C)[C@H]2CC[C@H](OCCN3CCCC3)CC2)c(C)c1 [Example 2] | 15
